Like-named read-outs stand apart in the source and are kept apart here.
Experiments:
[1] = system: Propionibacterium acnes ATCC 11827; assay: Anti-microbial activity against Propionibacterium acnes (disk zone of inhibition on Reinforced Clostridial Agar); assay type: cell-based; settings: 48 hours at 37° C., anaerobic
Procedure: Propionibacterium acnes was cultured in an anaerobic chamber (Coy Laboratory, USA with an automatic lock purge system). The growth standardization was ensured by culturing the organism in different culture media. The anaerobic conditions were ensured initially with Nitrogen gas and then a mixture of Nitrogen, Hydrogen and Carbon dioxide in a ratio of 80:10:10. A two gas tank arrangement was made wherein only Nitrogen was connected to the transfer chamber and the mixed gas to the main chamber using Gassing Manifold (Hrishi Biotech. Pune, India). The anaerobic media were prepared by heating the media while passing the mixture of gases Nitrogen and Carbon dioxide in a ratio of 4:1 simultaneously. A redox indicator reazurin=0.001% was added to the media. The indicator is colorless in an anaerobic environ and turns blue otherwise. It was dispensed to 30 ml, 20 ml and 10 ml vials sealed with rubber and aluminium clamps and sterilized by autoclaving at 121° C. for 15 minutes.
Propionibacterium acnes ATCC 11827 was sub cultured from broth cultures into vials containing fresh medium. The cultures were then incubated for 48 hours at 37° C. The optical density of the culture at 625 nm was maintained between 0.64 and 0.80 which corresponded to approximately 12×10^6 cells/ml (4.0 MC Mc Farland standard). The anti-microbial susceptibility testing was carried on Reinforced Clostridial Agar (RCA). 0.3 ml of P. acnes culture was inoculated into the culture plates. Culture plates were impregnated with disks comprising varying concentrations of the test naturally occuring poly isoprenylated benzophenone derivatives. The plates were incubated in anaerobic chambers at 37° C. for 48 hours. The test naturally occuring poly isoprenylated benzophenone derivatives were prepared with DMSO as vehicle. The controls included DMSO and Clindac A (Clindamycin Phosphate Gel 1% w/w). The zone of inhibition was measured and expressed in mm. (Table I)

[2] = biological target: T1, Elastase from Pig pancreas (Sus scrofa, UniProt P00772); assay: Anti-elastase activity (EnzChek elastase assay kit); assay type: biochemical; settings: read after 30 minutes
T1 construct: purchased; host or cells: pig pancreas
Procedure: Principle: The assays were done using the EnzChek elastase assay kit. The substrate is DQ elastin soluble bovine neck ligament. DQ elastin is labeled with BODIPY FL dye. The non-fluorescent substrate can be digested by elastase to yield highly fluorescent fragments and in the presence of inhibitor, the fluorescence intensity is quenched. The fluorescence intensity was measured in a microplate reader ([…].) Methodology: Varying concentrations of the test material were pre-incubated for 10 minutes with the substrate DQ […]. Elastase from Pig pancreas enzyme was then added and the fluorescence intensity was measured after 30 minutes (Em: 485 nm and Ex: 520 nm.).

COX-1 = biological target: T2, COX-1 (Ovis aries, UniProt P05979); assay: COX inhibitor screening assay (Cayman, EIA), COX-1; assay type: biochemical; settings: substrate Arachidonate, prostaglandins by EIA
T2 construct: purchased Cayman chemical company 560101
T2 sequence (P05979 25-600): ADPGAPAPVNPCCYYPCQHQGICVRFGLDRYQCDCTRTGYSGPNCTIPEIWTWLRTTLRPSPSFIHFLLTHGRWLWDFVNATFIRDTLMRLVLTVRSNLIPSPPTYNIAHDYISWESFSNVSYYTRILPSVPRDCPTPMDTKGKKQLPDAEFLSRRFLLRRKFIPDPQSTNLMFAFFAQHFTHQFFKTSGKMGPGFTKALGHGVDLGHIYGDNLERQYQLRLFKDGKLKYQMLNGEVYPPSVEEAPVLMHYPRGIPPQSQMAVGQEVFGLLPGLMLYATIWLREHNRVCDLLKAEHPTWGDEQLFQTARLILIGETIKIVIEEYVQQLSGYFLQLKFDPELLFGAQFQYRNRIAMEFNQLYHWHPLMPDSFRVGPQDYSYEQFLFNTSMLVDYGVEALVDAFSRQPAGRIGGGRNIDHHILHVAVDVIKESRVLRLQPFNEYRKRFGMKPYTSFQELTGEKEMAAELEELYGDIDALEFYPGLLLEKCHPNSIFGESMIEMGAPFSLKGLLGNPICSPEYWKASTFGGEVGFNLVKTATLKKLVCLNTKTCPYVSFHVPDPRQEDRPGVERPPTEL
Procedure: Principle: The COX inhibitor screening Assay was performed using the Cox inhibitory kit from Cayman chemical company (Catalog No. 560101) by Enzyme Immuno Assay method. Methodology: Enzyme (COX-1) is allowed to react on substrate Arachidonate in presence & absence of the inhibitor. The amount of prostaglandins (PGF2 ? ) produced by stannous chloride reduction of COX-derived PGFH2 are estimated by EIA (Cayman) using a broadly specific antibody that binds to all major prostaglandin compounds. The decrease in PGs released in presence of inhibitor is directly proportional to inhibition.

COX 2 = biological target: T3, COX 2 (Ovis aries, UniProt P79208); assay: COX inhibitor screening assay (Cayman, EIA), COX-2; assay type: biochemical; settings: prostaglandins by EIA
T3 construct: purchased Cayman chemical company 560101
T3 sequence (P79208 17-603): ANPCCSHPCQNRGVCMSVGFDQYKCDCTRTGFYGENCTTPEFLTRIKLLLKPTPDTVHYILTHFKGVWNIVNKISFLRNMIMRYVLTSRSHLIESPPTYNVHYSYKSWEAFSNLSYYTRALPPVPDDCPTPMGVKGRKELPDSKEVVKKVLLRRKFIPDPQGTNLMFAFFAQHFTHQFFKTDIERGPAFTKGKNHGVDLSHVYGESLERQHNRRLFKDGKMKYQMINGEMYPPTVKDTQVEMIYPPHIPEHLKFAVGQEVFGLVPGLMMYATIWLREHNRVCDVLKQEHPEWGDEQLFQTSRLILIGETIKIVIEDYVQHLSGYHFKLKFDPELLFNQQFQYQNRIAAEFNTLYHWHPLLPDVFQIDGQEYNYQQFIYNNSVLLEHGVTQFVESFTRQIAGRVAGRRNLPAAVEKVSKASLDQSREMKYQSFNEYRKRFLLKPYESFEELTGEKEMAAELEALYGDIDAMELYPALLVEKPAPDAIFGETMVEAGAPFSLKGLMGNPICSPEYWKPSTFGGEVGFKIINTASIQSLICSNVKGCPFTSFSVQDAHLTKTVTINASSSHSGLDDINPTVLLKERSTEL

T1 sequence (P00772 27-266): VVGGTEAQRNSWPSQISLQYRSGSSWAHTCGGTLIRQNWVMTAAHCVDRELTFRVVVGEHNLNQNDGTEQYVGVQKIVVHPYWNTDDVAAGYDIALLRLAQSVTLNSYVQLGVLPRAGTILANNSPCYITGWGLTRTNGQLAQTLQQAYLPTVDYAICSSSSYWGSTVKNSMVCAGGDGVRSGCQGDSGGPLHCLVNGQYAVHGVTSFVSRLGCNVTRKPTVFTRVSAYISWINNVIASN

IC50 ([2]; Table III, read-out: IC50 (anti-elastase, sigmoidal dose response curve) (converted)) [µM]	IC50 ([2]; read-out: IC50 (anti-elastase) (converted)) [µM]	IC50 (COX-1) [µM]	IC50 (COX 2) [µM]	SMILES	Zone of Inhibition ([1]; Conc. of the sample 0.5%) [mm]	Zone of Inhibition ([1]; Conc. of the sample 1.0%) [mm]	Zone of Inhibition ([1]; Conc. of the sample 2.0%) [mm]	Zone of Inhibition ([1]; Conc. of the sample 5.0%) [mm]	Zone of Inhibition ([1]; Conc. of the sample 0.01%) [mm]	Zone of Inhibition ([1]; Conc. of the sample 0.03%) [mm]	Zone of Inhibition ([1]; Conc. of the sample 0.05%) [mm]	Zone of Inhibition ([1]; Conc. of the sample 0.1%) [mm]	Zone of Inhibition ([1]; Conc. of the sample 0.3%) [mm]
				CC(C)=CC[C@H]1C[C@@]23C[C@@H](CC=C(C)C)C(C)(C)[C@@](CC=C(C)C)(C(=O)C(C(=O)c4ccc(O)c(O)c4)=C2OC1(C)C)C3=O [Cambogin 90%, Cambogin]	0	0	0	0					
496	498	144	36.5	C=C(C)[C@@H](CC=C(C)C)C[C@@]12C[C@@H](CC=C(C)C)C(C)(C)[C@@](CC=C(C)C)(C(=O)C(C(=O)c3ccc(O)c(O)c3)=C1O)C2=O [Garcinol]	16	18	19	20	7	8	10	11	14

Source: patent US20080207952A1, “NOVEL THERAPEUTIC APPLICATIONS OF NATURAL POLY ISOPRENYLATED BENZOPHENONE DERIVATIVES AS DRUGS/MEDICAMENTS” (priority 2003, published 2008)
